Like-named read-outs stand apart in the source and are kept apart here.
How the values were obtained:
c-Met kinase = c-Met kinase (Homo sapiens, UniProt P08581); experiment: c-Met kinase inhibition assay; type: biochemical
Experimental: The kinase assay was performed by Pratzer Biotechnology Co. Ltd. (Changsha, China).

MCF-7 cells = experiment: MTT antiproliferative assay, MCF-7; type: cell-based; settings: Homo sapiens, read-out: IC50 MCF-7
Experimental: (§1) The cell lines used in the experiment were available from the Cell Culture Collection of Chinese Academy of Sciences (Shanghai Institutes for Biological Sciences, Chinese Academy of Sciences). Referring to the previous experimental methods of our research, all cells were cultured in suitable medium such as DMEM or RPMI-1640 containing 10% fetal bovine serum at 37°C in 5% CO2 and propagated for 24 h. Then the compounds with different gradient concentrations were added into the medium and incubated for 72 h, and then MTT (thiazolyl blue tetrazolium bromide) with a concentration of 5 µg/ml was added to every well for 4 h at 37°C. The formazan crystals were dissolved in 100 µl of DMSO in each well. The absorbancy at 492 nm (for absorbance of MTT formazan) and 630 nm (for the reference wavelength) was measured with an ELISA reader. All compounds were tested three times in each of the cell lines. The results, expressed as inhibition rates or IC50 (half-maximal inhibitory concentration), were the averages of two determinations and calculated by using the Bacus Laboratories Incorporated Slide Scanner (Bliss) software.

A549 cells = experiment: MTT antiproliferative assay, A549; type: cell-based; settings: Homo sapiens, 72 h;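 also: formazan read-out dissolved in DMSO, each compound assayed three times, IC50 computed with Bliss software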
Experimental: The cell lines used in the experiment were available from the Cell Culture Collection of Chinese Academy of Sciences (Shanghai Institutes for Biological Sciences, Chinese Academy of Sciences). […] The formazan crystals were dissolved in 100 µl of DMSO in each well. […] All compounds were tested three times in each of the cell lines. The results, expressed as inhibition rates or IC50 (half-maximal inhibitory concentration), were the averages of two determinations and calculated by using the Bacus Laboratories Incorporated Slide Scanner (Bliss) software.

Hela cells = experiment: MTT antiproliferative assay, Hela; type: cell-based; settings: Homo sapiens, 72 h, read-out: IC50 Hela
Experimental: as §1

PC-9 cells = experiment: Antiproliferative activity, PC-9; type: cell-based; settings: Homo sapiens
Experimental: as §1

H460 cells = experiment: Antiproliferative activity, H460; type: cell-based; settings: Homo sapiens, NCI-H460
Experimental: as §1

H1975 cells = experiment: Antiproliferative activity, H1975; type: cell-based; settings: Homo sapiens, NCI-H1975
Experimental: as §1

Sequence of c-Met kinase (P08581 25-1390): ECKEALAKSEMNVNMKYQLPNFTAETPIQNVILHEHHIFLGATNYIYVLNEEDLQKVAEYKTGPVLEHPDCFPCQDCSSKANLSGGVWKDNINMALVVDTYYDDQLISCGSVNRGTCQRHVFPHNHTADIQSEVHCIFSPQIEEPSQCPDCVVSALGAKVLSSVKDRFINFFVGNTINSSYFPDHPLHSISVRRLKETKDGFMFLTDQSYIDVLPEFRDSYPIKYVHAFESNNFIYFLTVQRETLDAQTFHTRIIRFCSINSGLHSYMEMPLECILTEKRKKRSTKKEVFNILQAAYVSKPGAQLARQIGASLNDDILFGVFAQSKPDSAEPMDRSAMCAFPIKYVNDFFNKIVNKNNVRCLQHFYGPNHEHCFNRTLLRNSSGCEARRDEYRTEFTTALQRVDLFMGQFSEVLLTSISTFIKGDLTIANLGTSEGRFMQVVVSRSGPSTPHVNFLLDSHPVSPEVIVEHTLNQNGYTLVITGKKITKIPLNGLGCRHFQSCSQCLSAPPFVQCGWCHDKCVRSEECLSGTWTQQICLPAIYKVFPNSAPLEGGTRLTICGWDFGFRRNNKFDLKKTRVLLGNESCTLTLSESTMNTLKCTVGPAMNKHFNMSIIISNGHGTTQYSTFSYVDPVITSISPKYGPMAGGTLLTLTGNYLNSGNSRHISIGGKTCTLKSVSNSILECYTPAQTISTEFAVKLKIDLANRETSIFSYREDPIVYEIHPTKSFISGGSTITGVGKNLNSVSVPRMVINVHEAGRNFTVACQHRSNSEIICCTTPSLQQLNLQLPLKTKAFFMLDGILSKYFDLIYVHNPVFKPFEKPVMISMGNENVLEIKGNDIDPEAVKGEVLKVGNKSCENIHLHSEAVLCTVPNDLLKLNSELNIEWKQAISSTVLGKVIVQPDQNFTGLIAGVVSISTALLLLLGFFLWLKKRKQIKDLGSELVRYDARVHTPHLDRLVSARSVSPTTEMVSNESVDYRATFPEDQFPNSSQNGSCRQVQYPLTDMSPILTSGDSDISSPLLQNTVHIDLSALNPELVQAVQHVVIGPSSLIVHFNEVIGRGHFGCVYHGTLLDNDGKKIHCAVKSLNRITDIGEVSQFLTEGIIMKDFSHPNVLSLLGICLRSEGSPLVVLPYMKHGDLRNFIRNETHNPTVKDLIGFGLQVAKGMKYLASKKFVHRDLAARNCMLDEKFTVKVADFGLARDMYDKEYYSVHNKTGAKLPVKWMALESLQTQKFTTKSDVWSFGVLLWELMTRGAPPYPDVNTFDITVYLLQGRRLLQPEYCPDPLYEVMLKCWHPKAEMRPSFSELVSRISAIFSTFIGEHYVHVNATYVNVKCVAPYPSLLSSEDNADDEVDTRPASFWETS

IC50 (c-Met kinase)	melting point	IC50 (MCF-7 cells; MCF7, MTT, 72 h, MCF-7 cells)	IC50 (A549 cells)	IC50 (Hela cells; MTT, Hela cells)	IC50 (PC-9 cells)	IC50 (H460 cells)	IC50 (H1975 cells)	SMILES	IC50 (MCF-7 cells; MCF7, 72 h)	IC50 (Hela cells; HeLa)
0.658 µM	278.1 to 282.7 °C	9.17 ± 1.03 µM	8.21 ± 0.65 µM	17.7 ± 1.29 µM				Cc1nc(-c2ccccc2)sc1C(=O)Nc1ccc(Oc2nccn3cnnc23)c(F)c1 [16 g]		
0.437 µM	203.4 to 207.6 °C	8.18 ± 1.12 µM	6.56 ± 0.42 µM	13.9 ± 1.59 µM				Cc1nc(-c2ccccn2)sc1C(=O)Nc1ccc(Oc2nccn3cnnc23)c(F)c1 [16 h]		
0.38 µM		6.51 ± 0.63 µM	6.18 ± 0.34 µM	12.9 ± 1.06 µM				O=C(Nc1ccc(Oc2nccn3cnnc23)c(F)c1)c1cnn(-c2ccc(Cl)cc2)c1C(F)(F)F [16 k]		
0.794 µM	265.8 to 268.1 °C	13.8 ± 1.23 µM	12.4 ± 0.97 µM	21.5 ± 1.78 µM				Cc1nc(-c2ccccc2)sc1C(=O)Nc1ccc(Oc2nccn3cnnc23)cc1 [16a]		
0.379 µM		7.87 ± 0.42 µM	6.46 ± 0.33 µM	12.2 ± 1.08 µM				Cc1nc(-c2ccccn2)sc1C(=O)Nc1ccc(Oc2nccn3cnnc23)cc1 [16b]		
0.345 µM	235.6 to 237.5 °C	6.45 ± 0.81 µM	5.58 ± 0.75 µM	14.3 ± 1.15 µM				Cc1nc(-c2ccncc2)sc1C(=O)Nc1ccc(Oc2nccn3cnnc23)cc1 [16c]		
0.722 µM	261.3 to 263.5 °C	11.5 ± 1.06 µM	12.3 ± 0.98 µM	19.5 ± 1.94 µM				O=C(Nc1ccc(Oc2nccn3cnnc23)cc1)c1cnn(-c2ccc(Cl)cc2)c1C(F)(F)F [16d]		
0.342 µM		7.13 ± 0.63 µM	5.44 ± 0.42 µM	11.2 ± 0.96 µM				O=C(Nc1ccc(Oc2nccn3cnnc23)cc1)c1cc(-c2cccs2)n[nH]1 [16e]		
> 1 µM	291.5 to 293.1 °C	> 50 µM	27.3 ± 0.86 µM	> 50 µM				O=C(Nc1ccc(Oc2nccn3cnnc23)cc1)c1cc(-c2cccs2)no1 [16f]		
		19 ± 1.32 µM	17.4 ± 0.97 µM	25 ± 2.17 µM				Cc1nc(-c2cccnc2)sc1C(=O)Nc1ccc(Oc2nccn3cnnc23)c(F)c1 [16i]		
0.11 µM	226.9 to 229.1 °C	3.68 ± 0.34 µM	3.26 ± 0.67 µM	6.17 ± 0.58 µM				Cc1nc(-c2ccncc2)sc1C(=O)Nc1ccc(Oc2nccn3cnnc23)c(F)c1 [16j]		
0.725 µM		12 ± 1.24 µM	11.4 ± 0.76 µM	23.3 ± 2.12 µM				O=C(Nc1ccc(Oc2nccn3cnnc23)c(F)c1)c1cc(-c2cccs2)no1 [16l]		
	299 to 302.1 °C							Cc1nc(-c2ccccc2)sc1C(=O)Nc1ccc(Oc2nccn3c(C)nnc23)c(F)c1 [17 g]		
0.156 µM		4.25 ± 0.76 µM	3.56 ± 0.32 µM	7.43 ± 0.38 µM				Cc1nc(-c2ccccn2)sc1C(=O)Nc1ccc(Oc2nccn3c(C)nnc23)c(F)c1 [17 h]		
		18.2 ± 1.28 µM	15.3 ± 0.51 µM	25.3 ± 2.4 µM				Cc1nc(-c2ccc(F)cc2)sc1C(=O)Nc1ccc(Oc2nccn3c(C)nnc23)c(F)c1 [17 k]		
0.653 µM		9.34 ± 1.03 µM	8.84 ± 0.97 µM	17.4 ± 1.56 µM				Cc1nnc2c(Oc3ccc(NC(=O)c4cc(-c5cccs5)no4)cc3F)nccn12 [17 m]		
0.055 µM		1.43 ± 0.21 µM	1.23 ± 0.13 µM	2.31 ± 0.29 µM				Cc1nc(-c2ccccc2)sc1C(=O)Nc1ccc(Oc2nccn3c(C)nnc23)cc1 [17a]		
0.245 µM		5.15 ± 0.72 µM	4.31 ± 0.49 µM	9.46 ± 0.58 µM				Cc1nc(-c2ccccn2)sc1C(=O)Nc1ccc(Oc2nccn3c(C)nnc23)cc1 [17b]		
0.532 µM	270.7 to 273.8 °C	8.79 ± 0.89 µM	7.68 ± 0.71 µM	15.9 ± 1.1 µM				Cc1nc(-c2ccncc2)sc1C(=O)Nc1ccc(Oc2nccn3c(C)nnc23)cc1 [17c]		
0.289 µM		6.95 ± 0.67 µM	5.21 ± 0.37 µM	10.7 ± 1.42 µM				Cc1nc(-c2ccc(F)cc2)sc1C(=O)Nc1ccc(Oc2nccn3c(C)nnc23)cc1 [17d]		
0.077 µM		1.74 ± 0.22 µM	2.05 ± 0.19 µM	4.78 ± 0.43 µM				Cc1nnc2c(Oc3ccc(NC(=O)c4cnn(-c5ccc(Cl)cc5)c4C(F)(F)F)cc3)nccn12 [17e]		
0.3 µM	275.6 to 278.1 °C	6.38 ± 0.85 µM	5.73 ± 0.54 µM	12.4 ± 1.53 µM				Cc1nnc2c(Oc3ccc(NC(=O)c4cc(-c5cccs5)n[nH]4)cc3)nccn12 [17f]		
	220.7 to 223.1 °C	25.4 ± 1.54 µM	188 µM	> 50 µM				Cc1nc(-c2cccnc2)sc1C(=O)Nc1ccc(Oc2nccn3c(C)nnc23)c(F)c1 [17i]		
0.45 µM		7.31 ± 0.77 µM	7.16 ± 0.45 µM	14.2 ± 1.64 µM				Cc1nc(-c2ccncc2)sc1C(=O)Nc1ccc(Oc2nccn3c(C)nnc23)c(F)c1 [17j]		
								COc1cc2c(Oc3ccc(NC(=O)C4(C(=O)Nc5ccc(F)cc5)CC4)cc3F)ccnc2cc1OCCCN1CCOCC1 [Foretinib, foretinib, reference compound]	0.93 ± 0.09 µM	1.18 ± 0.25 µM
					5.41 ± 0.73 µM	5.27 ± 0.72 µM	10.2 ± 1 µM	CNC(=O)c1cc(Oc2ccc(NC(=O)Nc3ccc(Cl)c(C(F)(F)F)c3)cc2)ccn1 [Sorafenib, sorafenib, reference compound]		

Source: paper PMC9019572, “Design, Synthesis, and Biological Evaluation of [1,2,4]triazolo[4,3-a] Pyrazine Derivatives as Novel Dual c-Met/VEGFR-2 Inhibitors” (Frontiers in Chemistry, 2022)
